The compounds below were run against T1, glucocorticoid receptor (Homo sapiens, UniProt P04150) (assay: Ligand binding assay (GRBind), 3H-dexamethasone displacement in HeLa cell lysate). Conditions: 3H-DEX tracer.
T1 construct: endogenous in cells; host or cells: HeLa (ATCC) cell lysate supernatant
T1 sequence (P04150 1-777): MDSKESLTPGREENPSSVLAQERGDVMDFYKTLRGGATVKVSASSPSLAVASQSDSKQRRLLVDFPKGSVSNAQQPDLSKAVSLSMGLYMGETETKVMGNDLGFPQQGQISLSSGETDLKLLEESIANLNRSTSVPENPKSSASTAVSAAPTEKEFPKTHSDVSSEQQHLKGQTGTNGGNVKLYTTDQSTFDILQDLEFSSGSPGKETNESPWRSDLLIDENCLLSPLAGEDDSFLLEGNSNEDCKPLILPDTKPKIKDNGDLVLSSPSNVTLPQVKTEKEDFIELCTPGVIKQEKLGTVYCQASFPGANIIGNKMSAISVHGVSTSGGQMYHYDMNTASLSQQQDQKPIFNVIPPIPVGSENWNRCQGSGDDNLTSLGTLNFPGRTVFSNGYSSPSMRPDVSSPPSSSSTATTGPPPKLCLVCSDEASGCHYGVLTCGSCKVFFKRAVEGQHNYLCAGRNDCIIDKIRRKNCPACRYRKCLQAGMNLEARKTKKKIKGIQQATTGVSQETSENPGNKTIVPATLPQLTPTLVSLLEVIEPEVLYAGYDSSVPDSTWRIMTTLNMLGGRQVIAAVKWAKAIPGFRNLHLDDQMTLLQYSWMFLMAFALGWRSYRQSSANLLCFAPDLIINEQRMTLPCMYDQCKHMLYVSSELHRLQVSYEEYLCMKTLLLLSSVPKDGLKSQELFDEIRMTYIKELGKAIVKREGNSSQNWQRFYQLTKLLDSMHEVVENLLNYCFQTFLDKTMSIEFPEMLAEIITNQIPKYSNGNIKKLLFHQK
Method: Binding Buffer: TEGM (10 mM Tris-HCl, 1 mM EDTA, 10% glycerol, 1 mM betamecaptoethanol, 10 mM Sodium Molybdate, pH 7.2)
50% HAP Slurry: Calbiochem Hydroxylapatite, Fast Flow, in 10 mM Tris, pH 8.0 and 1 mM EDTA.
Wash Buffer: 40 mM Tris, pH7.5, 100 mM KCl, 1 mM EDTA and 1 mM EGTA. 95% EtOH Dexmethasone-methyl-3H, (DEXA*); (Amersham cat#TRK645) Dexamethasone(DEX) (Sigma, cat#01756):
Hydroxylapatite Fast Flow; Calbiochem Cat#391947
25 Molybdate=Molybdic Acid (Sigma, M1651)
5 Cells (Hall R. E., et al., European Journal of Cancer, 30A: 484-490 (1994)) HeLa (ATCC) cultured in RPMI 1640 (Gibed 11835-055) containing 20 mM Hepes, 4 mM L-glu, 10 ug/ml of human insulin (Sigma, 1-0259), 10% FBS and 20 uglml of Gentamicin (Gibco#15710072) are rinsed twice in PBS. Phenol red-free Trypsin-EDTA is diluted in the same PBS 1:10. The cell layers are rinsed with IX Trypsin, extra Trypsin is poured out, and the cell layers are incubated at 37° C. for 2 min. The flask is tapped and checked for signs of cell detachment. Once the cells begin to slide off the flask, the complete media is added. The cells are counted at this point, then diluted to the appropriate concentration and split into flasks or dishes for further culturing (Usually 1:3 to 1:6 dilution).
Preparation of HeLa Cell Lysate
When the cells are 70 to 85% confluent, they are detached as described above, and collected by centrifuging at 1000 g for 10 min at 4° C. The cell pellet is washed twice with TEGM (10 mM Tris-HCl, 1 mM EDTA, 10% glycerol, 1 mM beta-mercaptoethanol, 10 mM Sodium Molybdate, pH 7.2). After the final wash, the cells are resuspended in TEGM at a concentration of 10^7 cells/mL. The cell suspension is snap frozen in liquid nitrogen or ethanol/dry ice bath and transferred to −80° C. freezer on dry ice. Before setting up the binding assay, the frozen samples are left on ice-water to just thaw. Then the samples are centrifuged at 12,500 g to 20,000 g for 30 min at 4° C. The supernatant is used to set-up assay right away. If using 50 μL of supernatant, the test compound can be prepared in 50 μL of the TEGM buffer.
Procedure for Multiple Compound Screening
1×TEGM buffer is prepared, and the isotope-containing assay mixture is prepared in the following order: EtOH (2% final concentration in reaction), 3H-DEX (Amersham Biosciences) and 1×TEGM. [e.g. For 100 samples, 200 JlL (100×2) of EtOH+4.25 JlL of 1:10 ^3H-Dex stock+2300 μL (100×23) 1×TEGM]. The compound is serially diluted, e.g., if starting final conc. is 1 μM, and the compound is in 25 μL of solution, for duplicate samples, 75 μL of 4×1 μM solution is made and 3 μL of 100). 1M is added to 72 μL of buffer, and 1:5 serial dilution.
25 μL of ^3H-DEX (6 nM) trace and 25 μL, compound solution are first mixed together, followed by addition of 50 μL receptor solution. The reaction is gently mixed, spun briefly at about 200 rpm and incubated at 4° C. overnight. 100 μL of 50% HAP slurry is prepared and added to the incubated reaction which is then vortexed and incubated on ice for 5 to 10 min. The reaction mixture is vortexed twice more to resuspend HAP while incubating reaction. The samples in 96-well format are then washed in wash buffer using the FilterMate™ Universal Harvester plate washer (Packard). The washing process transfers HAP pellet containing ligand-bound expressed receptor to Unifilter-96 GFIB filter plate (Packard). The HAP pellet on the filter plate is incubated with […] of MICROSCINT (Packard) scintillant for 30 min before being counted on the TopCount microscintillation counter (Packard). IC50s are calculated using DEX as a reference.

First: CC[C@]12Cc3cnn(-c4ccc(F)cc4)c3C=C1CC[C@@]2(O)CCc1ccccc1CCC(N)=O [Example 22, 3-(2-{2-[(4aS,5R)-4a-Ethyl-1-(4-fluorophenyl)-5-hydroxy-1,4,4a,5,6,7-hexahydrocyclopenta[f]indazol-5-yl]ethyl}phenyl)propanamide]
Second: CC[C@]12Cc3cnn(-c4ccc(F)cc4)c3C=C1CC[C@@]2(O)CCc1cccc(F)c1CC(N)=O [Example 60, 2-(2-{2-[(4aS,5R)-4a-Ethyl-1-(4-fluorophenyl)-5-hydroxy-1,4,4a,5,6,7-hexahydrocyclopenta[f]indazol-5-yl]ethyl}-6-fluorophenyl)acetamide]
The Ki of the first is 1.6-fold lower: 1.48 nM for the first, 2.33 nM for the second.

`CC[C@]12Cc3cnn(-c4cccc(F)c4)c3C=C1CC[C@@]2(O)CCc1cccc(F)c1C(N)=O` [Example 12, 2-{2-[(4aS,5R)-4a-Ethyl-1-(3-fluorophenyl)-5-hydroxy-1,4,4a,5,6,7-hexahydrocyclopenta[f]indazol-5-yl]ethyl}-6-fluorobenzamide] and `CC[C@]12Cc3cnn(-c4cccnc4)c3C=C1CC[C@@]2(O)CCc1cccc(F)c1C#N` [Example 10, 2-{2-[(4aS,5R)-4a-Ethyl-5-hydroxy-1-(pyridin-3-yl)-1,4,4a,5,6,7-hexahydrocyclopenta[f]indazol-5-yl]ethyl}-6-fluorobenzonitrile] are within 1.5-fold of each other in Ki: 1.85 nM for the first, 2.59 nM for the second.

`NC(=O)c1ccccc1CC[C@]1(O)CCC2=Cc3c(cnn3-c3ccc(F)cc3)C[C@@]21C1CC1` [Example 23, 2-{2-[(4aR,5R)-4a-Cyclopropyl-1-(4-fluorophenyl)-5-hydroxy-1,4,4a,5,6,7-hexahydrocyclopenta[f]indazol-5-yl]ethyl}benzamide] and `NC(=O)Cc1ccccc1CC[C@]1(O)CCC2=Cc3c(cnn3-c3ccc(F)cc3)C[C@@]21C1CC1` [Example 56, 2-(2-{2-[(4aR,5S)-4a-Cyclopropyl-1-(4-fluorophenyl)-5-hydroxy-1,4,4a,5,6,7-hexahydrocyclopenta[f]indazol-5-yl]ethyl}phenyl)acetamide] are within 1.5-fold of each other in Ki: 1.8 nM for the first, 1.61 nM for the second.

First: CC[C@]12Cc3cnn(-c4ccc(F)cc4)c3C=C1CC[C@@]2(O)CC(O)c1c(F)ccnc1Cl (stereo partly drawn) [Example 74, (4aS,5R)-5-[2-(2-Chloro-4-fluoropyridin-3-yl)-2-hydroxyethyl]-4a-ethyl-1-(4-fluorophenyl)-1,4,4a,5,6,7-hexahydrocyclopenta[f]indazol-5-ol]
Second: CC[C@]12Cc3cnn(-c4ccc(F)cc4)c3C=C1CC[C@@]2(O)CCc1cc(F)ccn1 [Example 18, (4aS,5R)-4a-Ethyl-1-(4-fluorophenyl)-5-[2-(4-fluoropyridin-2-yl)ethyl]-1,4,4a,5,6,7-hexahydrocyclopenta[f]indazol-5-ol]
The Ki of the first is 5.4-fold higher: 9.35 nM for the first, 1.73 nM for the second.

`CC[C@]12Cc3cnn(-c4ccc(F)cc4)c3C=C1CC[C@@]2(O)CCc1ncccc1S(=O)(=O)C(C)C` [Example 62, (4aS,5R)-4a-Ethyl-1-(4-fluorophenyl)-5-{2-[3-(propan-2-ylsulfonyl)pyridin-2-yl]ethyl}-1,4,4a,5,6,7-hexahydrocyclopenta[f]indazol-5-ol] and `CC(C)(CO)NC(=O)c1cc(F)cnc1CC[C@]1(O)CCC2=Cc3c(cnn3-c3ccc(F)cc3)C[C@@]21C1CC1` [Example 48, 2-{2-[(4aR,5R)-4a-Cyclopropyl-1-(4-fluorophenyl)-5-hydroxy-1,4,4a,5,6,7-hexahydrocyclopenta[f]indazol-5-yl]ethyl}-5-fluoro-N-(1-hydroxy-2-methylpropan-2-yl)pyridine-3-carboxamide] are within 1.5-fold of each other in Ki: 4.06 nM for the first, 3.55 nM for the second.

`NC(=O)c1ccccc1CC[C@]1(O)CCC2=Cc3c(cnn3-c3cccc(F)c3)C[C@@]21C1CC1` [Example 7, 2-{2-[(4aR,5R)-4a-Cyclopropyl-1-(3-fluorophenyl)-5-hydroxy-1,4,4a,5,6,7-hexahydrocyclopenta[f]indazol-5-yl]ethyl}benzamide] gave a Ki of 3.22 nM.

From patent US20120214847A1, “2-[1-PHENYL-5-HYDROXY-4a-SUBSTITUTED-HEXAHYDROCYCLOPENTA[F]INDAZOL-5-YL]ETHYL PHENYL DERIVATIVES AS GLUCOCORTICOID RECEPTOR LIGANDS” (Merck Sharp & Dohme Corp., priority 2009, published 2012)
